Measured values: ChEMBL document CHEMBL2074199, “The MRP4/ABCC4 gene encodes a novel apical organic anion transporter in human kidney proximal tubules: putative efflux pump for urinary cAMP and cGMP” (J Am Soc Nephrol, 2002)
Values belong to the molecule of their own block, whether it stands above or below them.

How the values were obtained:
Assay type in all cases: functional, cell membranes, Membrane vesicle
MRP4 (ABCC4) [1] = molecular target: T1, MRP4 (ABCC4) (Homo sapiens, UniProt O15439); assay: TP_TRANSPORTER: inhibition of MTX uptake (MTX: 0.1 uM, E217betaG: 100 uM) in membrane vesicles from MRP4-expressing Sf9 cells; design: scale not given: the % may be the effect or the level left; conditions: probe methotrexate 0.1 uM, read-out: Activity
T1 sequence (O15439 whole entry): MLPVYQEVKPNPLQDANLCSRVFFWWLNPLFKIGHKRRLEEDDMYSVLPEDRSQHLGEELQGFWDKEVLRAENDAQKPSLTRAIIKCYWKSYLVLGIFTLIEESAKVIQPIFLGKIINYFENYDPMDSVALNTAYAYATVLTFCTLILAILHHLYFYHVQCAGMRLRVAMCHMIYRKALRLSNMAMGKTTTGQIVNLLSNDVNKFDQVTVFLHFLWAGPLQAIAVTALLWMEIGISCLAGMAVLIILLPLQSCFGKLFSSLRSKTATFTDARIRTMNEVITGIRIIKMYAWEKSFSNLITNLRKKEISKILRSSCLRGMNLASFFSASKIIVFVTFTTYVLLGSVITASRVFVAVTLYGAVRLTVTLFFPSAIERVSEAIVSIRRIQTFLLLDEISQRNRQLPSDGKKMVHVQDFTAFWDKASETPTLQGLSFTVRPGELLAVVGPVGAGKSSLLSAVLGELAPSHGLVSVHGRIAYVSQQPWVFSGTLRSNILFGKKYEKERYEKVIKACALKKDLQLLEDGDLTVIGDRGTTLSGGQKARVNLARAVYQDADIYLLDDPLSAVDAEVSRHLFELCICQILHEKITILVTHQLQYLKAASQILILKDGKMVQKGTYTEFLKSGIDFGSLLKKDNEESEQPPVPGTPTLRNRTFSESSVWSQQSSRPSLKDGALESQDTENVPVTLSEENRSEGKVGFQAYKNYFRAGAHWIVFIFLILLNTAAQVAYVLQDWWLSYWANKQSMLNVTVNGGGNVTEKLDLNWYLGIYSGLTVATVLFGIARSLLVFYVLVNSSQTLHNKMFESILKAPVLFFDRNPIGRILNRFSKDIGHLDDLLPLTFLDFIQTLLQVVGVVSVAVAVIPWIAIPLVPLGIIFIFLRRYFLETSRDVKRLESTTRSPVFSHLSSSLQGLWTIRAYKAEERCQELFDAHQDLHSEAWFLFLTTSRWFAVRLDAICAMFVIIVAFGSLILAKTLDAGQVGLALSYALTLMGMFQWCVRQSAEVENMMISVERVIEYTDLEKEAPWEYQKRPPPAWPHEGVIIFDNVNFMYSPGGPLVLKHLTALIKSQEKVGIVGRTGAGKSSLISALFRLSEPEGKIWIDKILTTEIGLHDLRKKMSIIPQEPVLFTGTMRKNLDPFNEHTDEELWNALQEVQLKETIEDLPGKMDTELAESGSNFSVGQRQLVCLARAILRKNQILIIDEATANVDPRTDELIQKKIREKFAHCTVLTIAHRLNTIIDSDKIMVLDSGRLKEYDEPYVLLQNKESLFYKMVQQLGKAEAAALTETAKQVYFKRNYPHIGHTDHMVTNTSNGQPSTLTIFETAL

[2] = molecular target: T2, ATP-binding cassette sub-family C member 4 (Homo sapiens, UniProt O15439); assay: TP_TRANSPORTER: inhibition of cGMP uptake ([…]: 1 uM, Dipyridamole: 1 uM) in membrane vesicles from MRP4-expressing Sf9 cells; design: scale not given: the % may be the effect or the level left; conditions: sf9, 1 µM
T2 sequence (O15439 whole entry): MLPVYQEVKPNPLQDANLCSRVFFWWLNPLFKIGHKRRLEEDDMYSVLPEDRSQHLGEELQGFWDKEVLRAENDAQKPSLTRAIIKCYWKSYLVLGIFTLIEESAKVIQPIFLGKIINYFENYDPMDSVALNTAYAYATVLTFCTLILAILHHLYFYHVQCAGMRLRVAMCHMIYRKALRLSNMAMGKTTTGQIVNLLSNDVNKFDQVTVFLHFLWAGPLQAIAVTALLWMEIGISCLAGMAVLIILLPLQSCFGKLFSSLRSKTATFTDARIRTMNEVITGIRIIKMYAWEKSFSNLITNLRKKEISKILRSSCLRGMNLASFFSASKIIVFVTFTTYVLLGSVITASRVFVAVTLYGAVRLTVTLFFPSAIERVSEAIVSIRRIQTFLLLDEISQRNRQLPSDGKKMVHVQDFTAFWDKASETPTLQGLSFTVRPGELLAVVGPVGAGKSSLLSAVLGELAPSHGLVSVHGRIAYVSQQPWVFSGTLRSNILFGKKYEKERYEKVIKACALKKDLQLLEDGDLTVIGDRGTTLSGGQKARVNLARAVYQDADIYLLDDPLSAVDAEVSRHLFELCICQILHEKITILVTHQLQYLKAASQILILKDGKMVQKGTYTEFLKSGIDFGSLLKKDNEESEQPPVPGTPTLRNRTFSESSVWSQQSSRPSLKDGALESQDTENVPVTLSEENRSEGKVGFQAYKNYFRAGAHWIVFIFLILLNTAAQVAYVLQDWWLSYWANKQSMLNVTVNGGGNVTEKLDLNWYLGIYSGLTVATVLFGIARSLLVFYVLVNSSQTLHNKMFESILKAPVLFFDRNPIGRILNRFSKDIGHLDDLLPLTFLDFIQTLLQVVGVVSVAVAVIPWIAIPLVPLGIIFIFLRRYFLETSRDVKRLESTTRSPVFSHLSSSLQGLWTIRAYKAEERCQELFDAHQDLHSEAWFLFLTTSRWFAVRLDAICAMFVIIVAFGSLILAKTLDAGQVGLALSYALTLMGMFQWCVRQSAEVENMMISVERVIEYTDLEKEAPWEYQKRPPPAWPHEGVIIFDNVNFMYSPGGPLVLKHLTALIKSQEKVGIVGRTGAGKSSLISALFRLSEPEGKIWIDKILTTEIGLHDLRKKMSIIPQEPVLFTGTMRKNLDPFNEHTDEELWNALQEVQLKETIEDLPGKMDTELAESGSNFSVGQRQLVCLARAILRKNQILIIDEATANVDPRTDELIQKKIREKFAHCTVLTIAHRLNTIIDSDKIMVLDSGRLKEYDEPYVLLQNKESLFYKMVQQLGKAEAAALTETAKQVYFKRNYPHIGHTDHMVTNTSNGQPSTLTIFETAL

MRP4 (ABCC4) [3] = molecular target: T1, MRP4 (ABCC4); assay: TP_TRANSPORTER: inhibition of MTX uptake (MTX: 0.1 uM, NAc-DNP-Cys: 100 uM) in membrane vesicles from MRP4-expressing Sf9 cells; design: scale not given: the % may be the effect or the level left; conditions: probe methotrexate 0.1 uM, read-out: Activity
MRP4 (ABCC4) [4] = molecular target: T1, MRP4 (ABCC4); assay: TP_TRANSPORTER: inhibition of Methotrexate uptake (MTX: 0.1 uM, alpha-naphthyl beta-D-glucuronide: 1000 uM) in membrane vesicles from MRP4-expressing Sf9 cells; design: scale not given: the % may be the effect or the level left; conditions: probe methotrexate 0.1 uM, read-out: Activity
MRP4 (ABCC4) [5] = molecular target: T1, MRP4 (ABCC4); assay: TP_TRANSPORTER: inhibition of Methotrexate uptake (MTX: 0.1 uM, DNP-SG: 100 uM) in membrane vesicles from MRP4-expressing Sf9 cells; design: scale not given: the % may be the effect or the level left; conditions: probe methotrexate 0.1 uM, read-out: Activity
[6] = molecular target: T2, ATP-binding cassette sub-family C member 4; assay: TP_TRANSPORTER: inhibition of cGMP uptake ([…]: 1 uM, Probenecid: 1000 uM) in membrane vesicles from MRP4-expressing Sf9 cells; design: scale not given: the % may be the effect or the level left; conditions: sf9, 1000 µM
MRP4 (ABCC4) [7] = molecular target: T1, MRP4 (ABCC4); assay: TP_TRANSPORTER: inhibition of MTX uptake (MTX: 0.1 uM, p-Nitropenyl-beta-D-glucuronide: 1000 uM) in membrane vesicles from MRP4-expressing Sf9 cells; design: scale not given: the % may be the effect or the level left; conditions: probe methotrexate 0.1 uM, read-out: Activity
[8] = substrate: CN(Cc1cnc2nc(N)nc(N)c2n1)c1ccc(C(=O)N[C@@H](CCC(=O)O)C(=O)O)cc1; assay: TP_TRANSPORTER: uptake in membrane vesicles from MRP4-expressing Sf9 cells

Molecule: C[C@]12CC[C@@H]3c4ccc(O)cc4CC[C@H]3[C@@H]1CC[C@@H]2O[C@@H]1O[C@H](C(=O)O)[C@@H](O)[C@H](O)[C@H]1O [ESTRADIOL 17B GLUCURONIDE]
activity at 100 µM (MRP4 (ABCC4) [1]): 75%

Molecule: OCCN(CCO)c1nc(N2CCCCC2)c2nc(N(CCO)CCO)nc(N3CCCCC3)c2n1 [DIPYRIDAMOLE]
Activity [2]: 9%

Molecule: N[C@@H](CCC(=O)N[C@H](CSc1ccc([N+](=O)[O-])cc1[N+](=O)[O-])C(=O)NCC(=O)O)C(=O)O
activity at 100 µM (MRP4 (ABCC4) [5]): 3%

B1: ATP-binding cassette sub-family C member 4 (Homo sapiens) (protein)
chain: MLPVYQEVKPNPLQDANLCSRVFFWWLNPLFKIGHKRRLEEDDMYSVLPEDRSQHLGEELQGFWDKEVLRAENDAQKPSLTRAIIKCYWKSYLVLGIFTLIEESAKVIQPIFLGKIINYFENYDPMDSVALNTAYAYATVLTFCTLILAILHHLYFYHVQCAGMRLRVAMCHMIYRKALRLSNMAMGKTTTGQIVNLLSNDVNKFDQVTVFLHFLWAGPLQAIAVTALLWMEIGISCLAGMAVLIILLPLQSCFGKLFSSLRSKTATFTDARIRTMNEVITGIRIIKMYAWEKSFSNLITNLRKKEISKILRSSCLRGMNLASFFSASKIIVFVTFTTYVLLGSVITASRVFVAVTLYGAVRLTVTLFFPSAIERVSEAIVSIRRIQTFLLLDEISQRNRQLPSDGKKMVHVQDFTAFWDKASETPTLQGLSFTVRPGELLAVVGPVGAGKSSLLSAVLGELAPSHGLVSVHGRIAYVSQQPWVFSGTLRSNILFGKKYEKERYEKVIKACALKKDLQLLEDGDLTVIGDRGTTLSGGQKARVNLARAVYQDADIYLLDDPLSAVDAEVSRHLFELCICQILHEKITILVTHQLQYLKAASQILILKDGKMVQKGTYTEFLKSGIDFGSLLKKDNEESEQPPVPGTPTLRNRTFSESSVWSQQSSRPSLKDGALESQDTENVPVTLSEENRSEGKVGFQAYKNYFRAGAHWIVFIFLILLNTAAQVAYVLQDWWLSYWANKQSMLNVTVNGGGNVTEKLDLNWYLGIYSGLTVATVLFGIARSLLVFYVLVNSSQTLHNKMFESILKAPVLFFDRNPIGRILNRFSKDIGHLDDLLPLTFLDFIQTLLQVVGVVSVAVAVIPWIAIPLVPLGIIFIFLRRYFLETSRDVKRLESTTRSPVFSHLSSSLQGLWTIRAYKAEERCQELFDAHQDLHSEAWFLFLTTSRWFAVRLDAICAMFVIIVAFGSLILAKTLDAGQVGLALSYALTLMGMFQWCVRQSAEVENMMISVERVIEYTDLEKEAPWEYQKRPPPAWPHEGVIIFDNVNFMYSPGGPLVLKHLTALIKSQEKVGIVGRTGAGKSSLISALFRLSEPEGKIWIDKILTTEIGLHDLRKKMSIIPQEPVLFTGTMRKNLDPFNEHTDEELWNALQEVQLKETIEDLPGKMDTELAESGSNFSVGQRQLVCLARAILRKNQILIIDEATANVDPRTDELIQKKIREKFAHCTVLTIAHRLNTIIDSDKIMVLDSGRLKEYDEPYVLLQNKESLFYKMVQQLGKAEAAALTETAKQVYFKRNYPHIGHTDHMVTNTSNGQPSTLTIFETAL
Km [8]: 1300 µM

Results, then the molecule that gave them:

activity at 100 µM (MRP4 (ABCC4) [3]): 29%
Molecule: CC(=O)N[C@@H](CSc1ccc([N+](=O)[O-])cc1[N+](=O)[O-])C(=O)O

activity at 1000 µM (MRP4 (ABCC4) [4]): 18%
Molecule: O=C(O)[C@H]1O[C@@H](Oc2cccc3ccccc23)[C@H](O)[C@@H](O)[C@@H]1O

Activity [6]: 10%
Molecule: CCCN(CCC)S(=O)(=O)c1ccc(C(=O)O)cc1 [PROBENECID]

activity at 1000 µM (MRP4 (ABCC4) [7]): 25%
Molecule: O=C(O)[C@H]1O[C@@H](Oc2ccc([N+](=O)[O-])cc2)[C@H](O)[C@@H](O)[C@@H]1O
